Results published in ChEMBL document CHEMBL3507680, “University of Dundee, Gates Library screen for HepG2 cell viability”.

Experiment: Human HepG2 cell viability assay in 384 well format
Type: toxicity, cell-based
Set-up: dose 125 nL, time 70.5 hour; concentration not given beside the values
Settings: HepG2 cells, read-out: Inhibition

## Cn1cc(N2CC3(CCN(CC4CCC4)CC3)OCC2=O)cn1
  cytotoxicity at 70.5 h: -7.64%

## COC(=O)c1cc(C(=O)N2CCN(C)CC2)n(-c2ccccc2)n1
  cytotoxicity at 70.5 h: -6.12%

## Cc1nc(N(C)C)nc(C)c1NC(=O)c1ccccc1F
  cytotoxicity at 70.5 h: -7.08%

## CN(C)CCNC(=O)c1ccc(OC2CCN(C(=O)CO)CC2)c(Cl)c1
  cytotoxicity at 70.5 h: -7.98%

## Cc1nccn1CCC(=O)N1CCC2(CCC(=O)N(CC3CC3)C2)CC1
  cytotoxicity at 70.5 h: 2.21%

## Cc1nnsc1CN(C)C(=O)c1ccc(CSc2nnc[nH]2)o1
  cytotoxicity at 70.5 h: -10.2%

## CC(C)CCC(=O)NC(C)c1nnc2n1CCCCC2 (stereo not given)
  cytotoxicity at 70.5 h: -6.87%

## Cc1nnc2n1CCN(C(=O)c1cn(-c3ccc(F)cc3)nn1)C2
  cytotoxicity at 70.5 h: -0.105%

## CCS(=O)(=O)N1CCN(C(=O)c2ccc(Cn3cc(Br)cn3)cc2)CC1
  cytotoxicity at 70.5 h: -6.35%

## CN(C)c1cc(CNC(=O)Nc2nccs2)ccn1
  cytotoxicity at 70.5 h: -1.57%

## c1ccc(CCCN2CCN(CCn3cncn3)CC2)cc1
  cytotoxicity at 70.5 h: -3.65%

## O=S(=O)(c1cccs1)N1CC[C@@H](O)[C@@H]1Cc1ccncc1
  cytotoxicity at 70.5 h: 18%

## CC(NC(=O)C1CCCCC1)c1cc(O)nc(-c2cccnc2)n1 (stereo not given)
  cytotoxicity at 70.5 h: -4.35%

## COCCNC(=O)C1CCCN1S(=O)(=O)c1sc(=O)[nH]c1C (stereo not given)
  cytotoxicity at 70.5 h: -6.44%

## CC(C)Nc1ncnc2c1CCN(C(=O)CC1CCCC1)CC2
  cytotoxicity at 70.5 h: 9.38%

## CCc1ccc(NC(=O)N2C[C@H]3C[C@H](C(=O)NC(C)C)[C@@H](C2)O3)cc1
  cytotoxicity at 70.5 h: -7.8%

## Cc1ccc2c(c1)nc1n2[C@@H](CNC(=O)c2cncnc2)COC1
  cytotoxicity at 70.5 h: -2.41%

## CN(CC1=CCCN(Cc2cccc(C#N)c2)C1)C(=O)c1ccco1
  cytotoxicity at 70.5 h: -12.2%

## CC(=O)N1CCCC(C(=O)N2CCN(Cc3cc(C)on3)CC2)C1 (stereo not given)
  cytotoxicity at 70.5 h: 2.35%

## O=C(CC1CC1)N1CCCn2c(nnc2Cn2cccc2)C1
  cytotoxicity at 70.5 h: -4.38%

## COc1ccc(CN2CCCn3nnc(COCC4CC4)c3C2)cc1
  cytotoxicity at 70.5 h: -12.2%

## CCc1ncc(-c2cn(CCSc3ncn[nH]3)nn2)cn1
  cytotoxicity at 70.5 h: -11.1%

## Cc1ccc([C@@H]2CN(C(=O)c3cc(C)n[nH]3)C[C@H]2NC(=O)C2CC2)cc1
  cytotoxicity at 70.5 h: 6.77%

## CCc1nc(NC(=O)Cc2csc(-c3nnc[nH]3)n2)sc1C
  cytotoxicity at 70.5 h: -11.9%

## COCCn1cnnc1CN(C)c1nc(N)nc2c1CCCC2
  cytotoxicity at 70.5 h: 3.03%

## CN1CCC(N(C)C(=O)c2cnc3c(cnn3C3CCCC3)c2)CC1
  cytotoxicity at 70.5 h: -7.87%

## CC(C)n1ncc2cc(NC(=O)N3CCC(C(N)=O)C3)cnc21 (stereo not given)
  cytotoxicity at 70.5 h: 16.7%

## CCC(C)Oc1cc(C(=O)N(c2cccnc2)C(C)C)ccn1 (stereo not given)
  cytotoxicity at 70.5 h: 0.858%

## CCc1ccc(CN2CCC3(CC2)CNC(=O)CO3)o1
  cytotoxicity at 70.5 h: -3.42%

## COc1ccc(-c2noc(C(N)CCSC)n2)cc1 (stereo not given)
  cytotoxicity at 70.5 h: 23.9%

## COc1cccc(OC)c1-c1ccnc2cc(CC(=O)NC(C)C)nn12
  cytotoxicity at 70.5 h: -7.86%

## CC(C)(C)CCN1CCCC(Cn2cc(CCO)nn2)C1 (stereo not given)
  cytotoxicity at 70.5 h: -9.34%

## CC1c2ncc(Cn3cncn3)n2CCN1C(=O)c1cscn1 (stereo not given)
  cytotoxicity at 70.5 h: 20.8%

## Cc1ncc(CN(C)CC(O)c2cccc(C(F)(F)F)c2)s1 (stereo not given)
  cytotoxicity at 70.5 h: 17.1%

## CC(=O)N1CCN([C@@H]2CC[C@@H](N(C)C(=O)C3CCCCC3)[C@H]2O)CC1
  cytotoxicity at 70.5 h: -5.4%

## O=C(NCCC1Cc2ccccc2C1)N1CCCC(O)C1 (stereo not given)
  cytotoxicity at 70.5 h: 26.4%

## CC1CCN(C(=O)c2ccc(N(C)Cc3cnn(C)c3)nc2)CC1
  cytotoxicity at 70.5 h: -7.81%

## O=C(CN1CC(c2ccccc2)CC1=O)N1CCC(c2ncc[nH]2)CC1 (stereo not given)
  cytotoxicity at 70.5 h: -4.48%

## O=C1NCC2(CCCN(C(=O)c3ccc4c(c3)CCCO4)CC2)O1 (stereo not given)
  cytotoxicity at 70.5 h: 4.55%

## O=c1c(NCCCO)c(N2CCN(c3ccccc3)CC2)c1=O
  cytotoxicity at 70.5 h: -2.43%

## Cc1noc(C)c1CNC(=O)N1CCCC(C)CC1 (stereo not given)
  cytotoxicity at 70.5 h: -3.6%

## CCc1nnsc1C(=O)N(C)Cc1ccc(C)o1
  cytotoxicity at 70.5 h: -0.808%

## Cc1noc([C@@H]2C[C@@H]3CCN(CC4CC4)C[C@H]3O2)n1
  cytotoxicity at 70.5 h: -4.17%

## CN1CCCN(c2nc3c(cnn3C(C)(C)C)c(=O)[nH]2)CC1
  cytotoxicity at 70.5 h: 16.5%

## N#Cc1cnn(CCN2CCOC(CNc3cccnn3)C2)c1 (stereo not given)
  cytotoxicity at 70.5 h: 4.89%

## CN(C)CC1(O)CCCN(C(=O)c2ccccc2-n2cccn2)C1 (stereo not given)
  cytotoxicity at 70.5 h: 17.7%

## CCOc1ccc(CN2C(=O)CC(C)(C)C2=O)nc1
  cytotoxicity at 70.5 h: 2.3%

## Cc1cccc(C)c1NC(=O)c1n[nH]c(-n2cnnc2)n1
  cytotoxicity at 70.5 h: -13.4%

## COc1ccc(NC(=O)COc2nn(C)c3nc(C)cc(C)c23)cn1
  cytotoxicity at 70.5 h: -18.4%

## Cn1cc(NC(=O)N2CCCC2c2cccnc2)ccc1=O (stereo not given)
  cytotoxicity at 70.5 h: -3.14%

## CCc1nc(C)c([C@H]2CN(C)C[C@@H]2C(=O)Nc2ccc3[nH]ncc3c2)[nH]1
  cytotoxicity at 70.5 h: -5.87%

## CC(C)c1cnc(CN(C)C2CCN(CCCc3cnn(C)c3)C2)o1 (stereo not given)
  cytotoxicity at 70.5 h: 20.9%

## CCn1ccnc1CN1CCCN(C(=O)COC2CCCCC2)CC1
  cytotoxicity at 70.5 h: -3.09%

## Cc1cc(NCCCNS(C)(=O)=O)nc2ccccc12
  cytotoxicity at 70.5 h: 2.5%

## COCC(=O)N1CCC2(CC1)CN(c1ccccn1)CCO2
  cytotoxicity at 70.5 h: -7.15%

## Cc1ccc(F)c(C(=O)Nc2cccc(CCN3CCCC3)c2)c1
  cytotoxicity at 70.5 h: -1.18%

## O=C(O)[C@@H]1CN(Cc2nc3ncccn3n2)C[C@H]1c1cccc(F)c1
  cytotoxicity at 70.5 h: 26.1%

## Cc1cc2nc(SCC(=O)N3CCCC3)n(C)c(=O)c2[nH]1
  cytotoxicity at 70.5 h: -3.73%

## Cc1cnc(C)c(Oc2ccc(Cl)c(CN3CCCC3)c2Cl)n1
  cytotoxicity at 70.5 h: 18.5%

## Cc1c(NC(C)C(C)C)cccc1C(=O)NCc1cnn(C)c1 (stereo not given)
  cytotoxicity at 70.5 h: -2.68%

## O=C(NC1CCC1)[C@H]1C[C@@H]2CN(C(=O)Nc3ccc(F)cc3)C[C@H]1O2
  cytotoxicity at 70.5 h: -5.31%

## CC(C)(C)c1csc(CNC(=O)C2NCCc3[nH]cnc32)n1 (stereo not given)
  cytotoxicity at 70.5 h: -9.53%

## COc1ccc(F)cc1CN1CCCn2nc(CNS(C)(=O)=O)cc2C1
  cytotoxicity at 70.5 h: -5.04%

## Cc1cc2n(n1)CC(CNCc1cc(C)on1)CN2 (stereo not given)
  cytotoxicity at 70.5 h: -9.53%

## Cc1nc(CCNC(=O)C(N)c2c(C)n[nH]c2C)sc1C (stereo not given)
  cytotoxicity at 70.5 h: -13.1%

## CN(CCNC(=O)N1CCN(Cc2ccon2)CC1)C1CCCC1
  cytotoxicity at 70.5 h: -1.48%

## CC[C@H]1CN2CC[C@H]1C[C@@H]2CNC(=O)Nc1cccc(C#N)c1
  cytotoxicity at 70.5 h: 13.7%

## CC(C)N(Cc1c[nH]nc1-c1ccc2c(c1)OCO2)Cc1nccn1C
  cytotoxicity at 70.5 h: -4.64%

## COC(=O)Cn1c(=O)nc2n1C(=O)N(c1ccc(F)cc1)C2
  cytotoxicity at 70.5 h: -12.5%

## Cc1c[nH]c(CN2CC[C@@]3(O)CCN(C(=O)C4CCC4)C[C@H]3C2)n1
  cytotoxicity at 70.5 h: -1.74%

## CCc1oc2ccc(NS(C)(=O)=O)cc2c1C(=O)OC
  cytotoxicity at 70.5 h: 0.398%

## Cn1ccnc1CN1CCOC[C@H]1c1nc(C(C)(C)C)co1
  cytotoxicity at 70.5 h: -1.75%

## CC(C)(C)C(=O)c1ccsc1NC(=O)CCNC(=O)c1ccco1
  cytotoxicity at 70.5 h: -5.13%

## CCN(Cc1ccc2c(c1)OCCO2)C(=O)NCc1cc[nH]n1
  cytotoxicity at 70.5 h: -20.9%

## Cc1nnn2c1COC(CNC(=O)c1cccn1C)C2 (stereo not given)
  cytotoxicity at 70.5 h: -14.1%

## CS(=O)(=O)N1CCC(CNC(=O)C2CCC2)CC1
  cytotoxicity at 70.5 h: 40.8%

## Cc1nnsc1C(=O)N1CCC2(CC1)c1nc[nH]c1CCN2CC(C)C
  cytotoxicity at 70.5 h: -2.79%

## Cc1ncsc1C(=O)N1CCCC1c1c(C)nn(C)c1C (stereo not given)
  cytotoxicity at 70.5 h: -1.63%

## Cc1nccn1Cc1nnc(C2CCCN(c3ncccn3)C2)n1C (stereo not given)
  cytotoxicity at 70.5 h: 15.5%

## O=C(Cc1ccc2c(c1)OCCO2)NC1CC1
  cytotoxicity at 70.5 h: 0.821%
